Like-named read-outs stand apart in the source and are kept apart here.
Tests used:
Assay type in all cases: biochemical
EGFR = target: T1, EGFR (Homo sapiens, UniProt P00533); test: Kinase inhibition assay (33P transfer), EGFR; conditions: Table 2, kinase inhibition class; read-out: EGFR-1
T1 construct: Kinases are expressed as either kinase domains or full length constructs; made in house
Summary of the method: (§1)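 Kinase domains or full-length enzymes, GST- or polyHis-tagged, were expressed in E. coli or baculovirus High Five cells and affinity-purified. Transfer of 33PO4 from ATP onto plate-bound poly(Glu,Tyr) 4:1 or poly(Arg,Ser) 3:1 was counted by liquid scintillation after a 0.5% phosphoric acid wash. IC50 = concentration halving incorporation.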

Zap-70 = target: T2, Zap-70 (Homo sapiens, UniProt P43403); test: Kinase inhibition assay (33P transfer), Zap-70; conditions: read-out: Zap-1
T2 construct: Kinases are expressed as either kinase domains or full length constructs; made in house
T2 sequence (P43403 1-619): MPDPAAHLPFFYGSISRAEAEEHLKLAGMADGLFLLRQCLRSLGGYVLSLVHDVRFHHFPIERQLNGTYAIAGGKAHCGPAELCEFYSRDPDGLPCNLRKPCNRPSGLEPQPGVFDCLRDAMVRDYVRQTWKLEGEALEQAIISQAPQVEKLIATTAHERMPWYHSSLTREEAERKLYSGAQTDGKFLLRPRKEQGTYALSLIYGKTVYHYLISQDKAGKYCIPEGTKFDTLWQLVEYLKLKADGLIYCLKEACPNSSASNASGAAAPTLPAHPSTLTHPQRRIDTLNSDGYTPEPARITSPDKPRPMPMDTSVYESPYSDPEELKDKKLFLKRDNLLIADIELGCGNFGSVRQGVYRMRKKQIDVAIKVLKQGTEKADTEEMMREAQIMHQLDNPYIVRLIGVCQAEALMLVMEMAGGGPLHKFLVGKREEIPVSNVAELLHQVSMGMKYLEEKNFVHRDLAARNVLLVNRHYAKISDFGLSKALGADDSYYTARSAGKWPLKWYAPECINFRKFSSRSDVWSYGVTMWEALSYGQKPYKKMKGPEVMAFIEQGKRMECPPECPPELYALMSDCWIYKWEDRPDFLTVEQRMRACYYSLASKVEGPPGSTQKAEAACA
Summary of the method: (§2)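 Measured by scintillation: radiolabelled phosphate added by tagged recombinant kinases to poly(Glu,Tyr) 4:1 or poly(Arg,Ser) 3:1 attached to microtiter wells, counted once free label was washed away with 0.5% phosphoric acid.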

AKT = target: T3, AKT (Homo sapiens, UniProt Q9Y243); test: Kinase inhibition assay (33P transfer), AKT; conditions: Table 2, kinase inhibition class; read-out: AKT3-1
T3 construct: Kinases are expressed as either kinase domains or full length constructs; made in house
Summary of the method: as §2

Tek = target: T4, Tek (Homo sapiens, UniProt Q02763); test: Kinase inhibition assay (33P transfer), Tek; conditions: read-out: Tek-1
T4 construct: Kinases are expressed as either kinase domains or full length constructs; made in house
Description: The inhibitor compounds described herein are screened in the following manner. Kinases suitable for use in the following protocol to determine kinase activity of the compounds described herein include, -but are not limited to: Lck, Lyn, Src, Fyn, Syk, Zap-70, Itk, Tec, Btk, EGFR, ErbB2, Kdr, Flt-1, Flt-3, Tek, c-Met, InsR, and AKT.
Kinases are expressed as either kinase domains or full length constructs fused to glutathione S-transferase (GST) or polyHistidine tagged fusion proteins in either E. colior Baculovirus-High Five expression systems. They are purified to near homogeneity by affinity chromatography essentially as previously described (Lehr et al., 1996; Gish et al., 1995). In some instances, kinases are co-expressed or mixed with purified or partially purified regulatory polypeptides prior to measurement of activity.
Kinase activity and inhibition are measured essentially by established protocols (Braunwalder et al., 1996). Briefly, The transfer of ^33PO4 from ATP to the synthetic substrates poly(Glu, Tyr) 4:1 or poly(Arg, Ser) 3:1 attached to the bioactive surface of microtiter plates serves as the basis to evaluate enzyme activity. After an incubation period, the amount of phosphate transferred is measured by first washing the plate with 0.5% phosphoric acid, adding liquid scintillant, and then counting in a liquid scintillation detector. The IC50 is determined by the concentration of compound that causes a 50% reduction in the amount of […] incorporated onto the substrate bound to the plate.

Lck = target: T5, Lck (Homo sapiens, UniProt P06239); test: Kinase inhibition assay (33P transfer), Lck; conditions: read-out: Lck-1
T5 construct: Kinases are expressed as either kinase domains or full length constructs; made in house
Summary of the method: as §2

Kdr = target: T6, Kdr (Homo sapiens, UniProt P35968); test: Kinase inhibition assay (33P transfer), Kdr; conditions: read-out: KDR-1
T6 construct: Kinases are expressed as either kinase domains or full length constructs; made in house
Summary of the method: as §2

c-Met = target: T7, c-Met (Homo sapiens, UniProt P08581); test: Kinase inhibition assay (33P transfer), c-Met; conditions: Table 2, kinase inhibition class; read-out: Met-1
T7 construct: Kinases are expressed as either kinase domains or full length constructs; made in house
Summary of the method: as §1

Itk = target: T8, Itk (Homo sapiens, UniProt Q08881); test: Kinase inhibition assay (33P transfer), Itk; conditions: read-out: Itk-1
T8 construct: Kinases are expressed as either kinase domains or full length constructs; made in house
T8 sequence (Q08881 1-620): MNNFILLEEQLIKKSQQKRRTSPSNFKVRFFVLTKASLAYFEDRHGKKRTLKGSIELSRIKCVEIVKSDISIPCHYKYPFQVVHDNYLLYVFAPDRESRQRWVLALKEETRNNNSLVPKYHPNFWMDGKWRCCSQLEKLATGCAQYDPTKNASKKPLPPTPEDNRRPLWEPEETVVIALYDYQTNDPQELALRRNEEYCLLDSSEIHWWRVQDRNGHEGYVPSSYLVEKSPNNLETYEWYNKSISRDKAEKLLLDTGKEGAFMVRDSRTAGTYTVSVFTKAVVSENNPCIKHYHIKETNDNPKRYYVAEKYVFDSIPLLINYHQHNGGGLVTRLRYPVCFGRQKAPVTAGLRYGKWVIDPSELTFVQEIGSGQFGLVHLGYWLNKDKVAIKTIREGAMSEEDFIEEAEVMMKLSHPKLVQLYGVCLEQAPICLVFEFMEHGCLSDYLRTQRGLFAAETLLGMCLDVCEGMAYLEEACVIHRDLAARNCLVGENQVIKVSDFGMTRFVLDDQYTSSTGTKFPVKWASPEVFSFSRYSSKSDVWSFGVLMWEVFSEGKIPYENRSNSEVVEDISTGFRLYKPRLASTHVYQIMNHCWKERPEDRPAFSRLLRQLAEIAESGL
Summary of the method: as §1

T1 sequence (P00533 25-1210, species assumed): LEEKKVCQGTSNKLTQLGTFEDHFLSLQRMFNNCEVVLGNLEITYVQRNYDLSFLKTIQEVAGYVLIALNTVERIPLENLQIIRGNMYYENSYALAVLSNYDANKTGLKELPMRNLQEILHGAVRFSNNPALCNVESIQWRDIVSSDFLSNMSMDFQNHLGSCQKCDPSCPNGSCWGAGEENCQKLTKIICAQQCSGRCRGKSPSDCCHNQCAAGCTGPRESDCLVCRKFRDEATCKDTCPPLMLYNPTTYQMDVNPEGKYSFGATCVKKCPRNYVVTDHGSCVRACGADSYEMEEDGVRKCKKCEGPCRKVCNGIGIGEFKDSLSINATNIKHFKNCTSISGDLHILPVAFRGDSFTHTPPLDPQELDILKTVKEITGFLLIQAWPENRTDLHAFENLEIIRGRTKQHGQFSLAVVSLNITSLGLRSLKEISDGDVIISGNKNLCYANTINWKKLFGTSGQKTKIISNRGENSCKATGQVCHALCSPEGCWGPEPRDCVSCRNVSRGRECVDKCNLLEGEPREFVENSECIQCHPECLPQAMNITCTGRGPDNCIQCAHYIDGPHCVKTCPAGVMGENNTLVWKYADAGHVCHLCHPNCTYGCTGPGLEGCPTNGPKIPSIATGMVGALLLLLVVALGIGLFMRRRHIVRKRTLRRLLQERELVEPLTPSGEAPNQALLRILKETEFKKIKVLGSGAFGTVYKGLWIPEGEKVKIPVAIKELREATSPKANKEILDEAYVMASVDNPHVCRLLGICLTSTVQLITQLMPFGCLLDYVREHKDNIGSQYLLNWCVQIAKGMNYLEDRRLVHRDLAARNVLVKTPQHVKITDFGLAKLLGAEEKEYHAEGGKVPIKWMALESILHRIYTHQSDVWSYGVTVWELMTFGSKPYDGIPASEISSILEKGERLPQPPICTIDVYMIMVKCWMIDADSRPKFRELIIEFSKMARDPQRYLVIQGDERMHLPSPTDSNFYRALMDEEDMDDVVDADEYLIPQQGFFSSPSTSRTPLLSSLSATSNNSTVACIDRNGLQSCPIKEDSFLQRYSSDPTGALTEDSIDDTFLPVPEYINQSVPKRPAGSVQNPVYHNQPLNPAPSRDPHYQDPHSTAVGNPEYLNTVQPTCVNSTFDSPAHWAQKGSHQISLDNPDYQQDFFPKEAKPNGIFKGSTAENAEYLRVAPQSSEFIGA
T5 sequence (P06239 whole entry, species assumed, the tested form may be a part): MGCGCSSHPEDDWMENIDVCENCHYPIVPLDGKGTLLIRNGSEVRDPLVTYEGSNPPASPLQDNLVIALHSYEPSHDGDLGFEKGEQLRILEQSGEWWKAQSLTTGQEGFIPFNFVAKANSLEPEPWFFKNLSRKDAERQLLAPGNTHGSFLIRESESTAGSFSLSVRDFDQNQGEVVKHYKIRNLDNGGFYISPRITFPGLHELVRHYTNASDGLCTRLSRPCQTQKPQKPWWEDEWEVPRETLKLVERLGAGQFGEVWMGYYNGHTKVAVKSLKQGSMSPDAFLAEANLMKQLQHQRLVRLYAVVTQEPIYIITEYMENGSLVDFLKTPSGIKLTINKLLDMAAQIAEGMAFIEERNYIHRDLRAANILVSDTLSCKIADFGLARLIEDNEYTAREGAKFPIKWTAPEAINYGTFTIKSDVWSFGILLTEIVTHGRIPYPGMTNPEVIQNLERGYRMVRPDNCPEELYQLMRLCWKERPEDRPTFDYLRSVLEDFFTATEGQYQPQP
T7 sequence (P08581 25-1390): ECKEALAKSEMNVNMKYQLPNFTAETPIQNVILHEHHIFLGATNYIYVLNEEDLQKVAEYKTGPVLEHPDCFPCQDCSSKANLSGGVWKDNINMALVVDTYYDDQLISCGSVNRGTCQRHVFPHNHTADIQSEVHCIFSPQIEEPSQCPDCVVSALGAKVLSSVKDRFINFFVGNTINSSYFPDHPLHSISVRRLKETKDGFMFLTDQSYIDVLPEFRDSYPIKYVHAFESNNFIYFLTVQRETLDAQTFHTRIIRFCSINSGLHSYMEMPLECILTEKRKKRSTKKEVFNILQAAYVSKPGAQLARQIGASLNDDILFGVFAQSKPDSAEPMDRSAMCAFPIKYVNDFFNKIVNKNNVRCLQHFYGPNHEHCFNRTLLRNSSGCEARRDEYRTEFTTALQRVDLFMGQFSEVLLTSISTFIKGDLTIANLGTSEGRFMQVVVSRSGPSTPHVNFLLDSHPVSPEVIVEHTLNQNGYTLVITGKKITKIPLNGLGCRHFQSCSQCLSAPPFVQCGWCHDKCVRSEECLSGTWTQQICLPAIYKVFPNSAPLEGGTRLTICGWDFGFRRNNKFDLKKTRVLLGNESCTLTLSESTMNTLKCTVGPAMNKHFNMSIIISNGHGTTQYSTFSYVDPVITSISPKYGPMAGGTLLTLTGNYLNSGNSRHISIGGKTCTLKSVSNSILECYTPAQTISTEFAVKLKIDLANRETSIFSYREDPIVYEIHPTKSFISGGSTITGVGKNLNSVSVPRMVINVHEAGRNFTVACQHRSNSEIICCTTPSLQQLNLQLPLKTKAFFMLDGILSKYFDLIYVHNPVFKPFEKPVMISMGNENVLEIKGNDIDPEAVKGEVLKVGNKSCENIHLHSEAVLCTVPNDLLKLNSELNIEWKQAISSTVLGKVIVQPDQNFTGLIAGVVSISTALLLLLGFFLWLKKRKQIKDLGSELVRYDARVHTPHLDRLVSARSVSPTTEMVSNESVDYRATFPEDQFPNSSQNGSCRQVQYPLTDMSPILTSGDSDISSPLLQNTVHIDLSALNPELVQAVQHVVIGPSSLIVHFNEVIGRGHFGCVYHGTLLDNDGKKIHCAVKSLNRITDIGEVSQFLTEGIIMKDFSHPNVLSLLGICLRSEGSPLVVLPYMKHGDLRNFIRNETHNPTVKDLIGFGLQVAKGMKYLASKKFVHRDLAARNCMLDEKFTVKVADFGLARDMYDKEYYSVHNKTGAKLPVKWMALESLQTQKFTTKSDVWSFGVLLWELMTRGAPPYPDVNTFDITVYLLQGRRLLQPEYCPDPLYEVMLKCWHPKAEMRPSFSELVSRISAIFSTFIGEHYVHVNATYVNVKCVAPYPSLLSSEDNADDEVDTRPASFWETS
T3 sequence (Q9Y243 whole entry, the tested form may be a part): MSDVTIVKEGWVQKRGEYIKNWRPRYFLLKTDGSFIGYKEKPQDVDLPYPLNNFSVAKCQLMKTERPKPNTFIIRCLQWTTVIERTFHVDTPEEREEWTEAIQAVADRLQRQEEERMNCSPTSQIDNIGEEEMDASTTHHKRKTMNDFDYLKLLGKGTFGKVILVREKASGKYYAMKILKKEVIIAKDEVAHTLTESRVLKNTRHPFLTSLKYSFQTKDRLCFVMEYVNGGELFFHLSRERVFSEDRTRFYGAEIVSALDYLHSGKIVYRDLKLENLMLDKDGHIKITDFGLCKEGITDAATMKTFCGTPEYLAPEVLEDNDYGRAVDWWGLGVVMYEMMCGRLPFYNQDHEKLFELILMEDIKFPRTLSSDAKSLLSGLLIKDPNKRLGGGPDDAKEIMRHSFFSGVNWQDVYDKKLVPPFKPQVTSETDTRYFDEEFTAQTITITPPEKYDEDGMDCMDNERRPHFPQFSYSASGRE
T6 sequence (P35968 20-1356, species assumed): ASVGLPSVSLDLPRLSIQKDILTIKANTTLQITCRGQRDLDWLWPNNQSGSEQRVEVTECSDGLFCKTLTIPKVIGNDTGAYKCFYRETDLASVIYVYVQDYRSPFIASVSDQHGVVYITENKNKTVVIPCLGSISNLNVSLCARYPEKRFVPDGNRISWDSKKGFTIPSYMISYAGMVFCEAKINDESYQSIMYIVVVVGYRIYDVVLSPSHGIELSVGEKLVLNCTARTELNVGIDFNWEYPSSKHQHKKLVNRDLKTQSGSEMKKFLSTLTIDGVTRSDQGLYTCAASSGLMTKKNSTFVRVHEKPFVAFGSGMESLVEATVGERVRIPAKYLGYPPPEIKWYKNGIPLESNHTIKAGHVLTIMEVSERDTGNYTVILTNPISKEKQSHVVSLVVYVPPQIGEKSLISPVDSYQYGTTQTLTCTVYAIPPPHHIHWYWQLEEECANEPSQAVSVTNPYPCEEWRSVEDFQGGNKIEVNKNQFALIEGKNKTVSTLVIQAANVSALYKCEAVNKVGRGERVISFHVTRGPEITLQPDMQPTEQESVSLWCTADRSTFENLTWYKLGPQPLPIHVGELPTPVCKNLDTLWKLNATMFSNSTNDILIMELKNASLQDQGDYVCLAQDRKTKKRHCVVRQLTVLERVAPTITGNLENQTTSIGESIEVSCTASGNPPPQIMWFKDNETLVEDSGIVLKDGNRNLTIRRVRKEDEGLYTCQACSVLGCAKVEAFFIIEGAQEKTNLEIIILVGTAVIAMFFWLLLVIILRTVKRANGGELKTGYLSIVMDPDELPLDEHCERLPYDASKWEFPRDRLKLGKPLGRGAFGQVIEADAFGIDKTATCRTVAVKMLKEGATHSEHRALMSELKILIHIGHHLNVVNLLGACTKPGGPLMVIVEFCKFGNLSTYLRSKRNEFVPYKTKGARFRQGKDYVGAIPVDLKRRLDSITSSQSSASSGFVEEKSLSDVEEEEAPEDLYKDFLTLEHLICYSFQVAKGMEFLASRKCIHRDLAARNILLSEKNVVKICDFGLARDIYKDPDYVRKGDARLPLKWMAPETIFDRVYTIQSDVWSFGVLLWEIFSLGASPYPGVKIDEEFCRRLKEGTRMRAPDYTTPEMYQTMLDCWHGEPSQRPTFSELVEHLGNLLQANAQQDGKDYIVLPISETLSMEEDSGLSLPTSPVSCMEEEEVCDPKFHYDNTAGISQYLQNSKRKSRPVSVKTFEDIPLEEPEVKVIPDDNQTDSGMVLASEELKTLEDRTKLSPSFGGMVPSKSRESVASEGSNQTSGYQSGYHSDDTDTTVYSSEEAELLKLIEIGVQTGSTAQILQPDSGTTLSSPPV

| SMILES | IC50 (EGFR) [µM] | IC50 (Zap-70; Table 3) [µM] | IC50 (AKT) [µM] | IC50 (Tek) [µM] | IC50 (Lck; Table 3) [µM] | IC50 (Kdr; Table 3) [µM] | IC50 (c-Met) [µM] | IC50 (Itk; Table 3) [µM] | IC50 (Zap-70) [µM] | IC50 (Lck) [µM] | IC50 (Kdr) [µM] | IC50 (Itk) [µM] |
| --- | --- | --- | --- | --- | --- | --- | --- | --- | --- | --- | --- | --- |
| O=c1[nH]c2ccccc2n1-c1ncnc(Nc2cccc([N+](=O)[O-])c2)n1 [Compound 467] | > 12.9 | 6.87 to 10 | > 12.9 | 6.87 to 10 | > 12.9 | 1.15 to 6.87 | > 12.9 | > 12.9 | – | – | – | – |
| COc1cc(Nc2ncnc(-n3c(NCCCc4ccccc4)nc4ccccc43)n2)cc(OC)c1OC [Compound 945] | > 8.8 | – | > 8.8 | > 8.8 | – | – | > 8.8 | – | > 8.8 | 6.84 to 8.8 | 0.782 to 4.69 | > 8.8 |
| CC(C)(C)c1cc(Nc2ncnc(Nc3ccc(CC(=O)O)cc3)n2)[nH]n1 [Compound 980] | 1.09 to 6.53 | – | 1.09 to 6.53 | > 12.2 | – | – | 9.53 to 12.2 | – | > 12.2 | > 12.2 | > 12.2 | 9.53 to 12.2 |
| O=c1[nH]c2ccccc2n1-c1ncnc(Nc2ccc(C(F)(F)F)cc2)n1 [Compound 505] | > 12.1 | – | > 12.1 | 6.45 to 9.4 | – | – | > 12.1 | – | 9.4 to 12.1 | > 12.1 | > 12.1 | > 12.1 |
| COc1cc(Nc2ncnc(Nc3ncnc4[nH]cnc34)n2)cc(OC)c1OC [Compound 696] | > 11.4 | – | > 11.4 | > 11.4 | – | – | > 11.4 | – | > 11.4 | > 11.4 | > 11.4 | > 11.4 |
| COc1cc(Nc2ncnc(N[C@@H](CO)c3ccccc3)n2)cc(OC)c1OC [Compound 427] | > 11.3 | > 11.3 | > 11.3 | > 11.3 | > 11.3 | > 11.3 | > 11.3 | > 11.3 | – | – | – | – |
| O=c1[nH]c2ccccc2n1-c1ncnc(Nc2ccncn2)n1 [Compound 492] | 7.84 to 11.4 | – | > 14.7 | 7.84 to 11.4 | – | – | 7.84 to 11.4 | – | 11.4 to 14.7 | > 14.7 | 7.84 to 11.4 | > 14.7 |
| COc1cc(Nc2ncnc(Nc3ccc(NC(=O)O[C@@H]4CCOC4)cc3)n2)cc(OC)c1OC [Compound 693] | 0.829 to 4.97 | – | > 9.33 | > 9.33 | – | – | 0.829 to 4.97 | – | > 9.33 | 0.829 to 4.97 | 0.829 to 4.97 | 4.97 to 7.25 |
| COc1cc(Nc2ncnc(-c3c(O)n(C)c4ccccc34)n2)cc(OC)c1OC [Compound 465] | > 11 | > 11 | > 11 | > 11 | > 11 | 0.982 to 5.89 | > 11 | > 11 | – | – | – | – |
| O=c1[nH]c2ccccc2n1-c1ncnc(Nc2ccccc2[N+](=O)[O-])n1 [Compound 493] | > 12.9 | – | > 12.9 | 6.87 to 10 | – | – | 10 to 12.9 | – | > 12.9 | > 12.9 | > 12.9 | > 12.9 |

From patent US7074789B2, “Kinase inhibitors” (Amgen Inc., priority 1999, dated 2006)
